Tested on: umbilical cord blood monocytes (MNCs) / EPC colonies
Assay: Colony formation, proliferative ability and cell cycle in xeno-free culture
Assay type: cell-based, human
Protocol: FIG. […] Specifically, the isolation and culture of […] (EPC) is performed by density difference centrifugation using ficoll after receiving umbilical cord blood (IRB approval number 05-2017-053, 50 cc or more) of mothers who visited the Department of Obstetrics and Gynecology, Pusan National University, Yangsan to obtain monocytes (MNCs). After red blood cell lysis, the cells were seeded (7>10^6 cells/well) in a 6-well plate coated with fibronectin (1 μg/cm^2), and were cultured for 5 days in an atmosphere of 5% CO2 at 37° C. under conditions of each medium ([…] endothelial cell differentiation (EGM2 media)). […] After culture, the medium was exchanged every day, and the EPC colony attachment was identified and subcultured when 70% or more thereof is under a confluent state. According to the type of culture medium, the cells obtained by culturing with the conventional vascular endothelial cell differentiation medium […]
[…] Example 11 were separated into single cells, and proliferative ability, cell cycle change, and colony formation ability were analyzed in the same manner as in Example 6. For the control group of this example, cells cultured by the conventional culture method (L-EPC) and cells cultured in a medium containing each single component in a xeno-free medium [a group treated with fucoidan (Fu, 0.1 μg/ml), a group treated with a tauroursodeoxycholic acid (TD, 25 μM), a group treated with oleuropein (OLP, 0.5 μM), and a group treated with a vascular endothelial growth factor (VEGF, 100 ng/ml)]were used.

In the case of vascular endothelial growth factor, the “colony formation ability (EPC colonies)” value (xeno-free medium) is reported as “EPC colonies were identified”, the “division time of the cells” value (xeno-free medium) is reported as “prolonged” and the “expression of VE-cadherin” value (xeno-free medium with single component) is reported as “low”.
